Experiment: Plasma pharmacokinetic profile of CBD after a single topical dose to CD-1 mice (In-life Study 1901002-01, LC-MS/MS)
Type: in vivo
Conditions: single topical dose 0.1 mL, mouse plasma
Procedure: The objective of this study was to determine the plasma pharmacokinetic (PK) profile of test article cannabidiol (CBD) following the administration of a single topical dose to CD-1 mice. The work was conducted at Alliance Pharma with a title of In-life Study 1901002-01. Although the in-life study was not intended to be conducted in compliance with Good Laboratory Practice regulations, the study was conducted in accordance with Alliance Pharma's IACUC (Institutional Animal Care and Use Committee) Protocol No. 2016-02_V4 and Alliance Pharma's standard operating procedures (SOPs). In addition, the pharmacokinetic analyses of mouse plasma samples were conducted in accordance with Alliance Pharma SOPs.
A total of 72 mouse (CD-1) plasma samples were transferred from Alliance Pharma's in-life facility located in Malvern, Pa. to the Bioanalytical department for pharmacokinetic analysis. The concentration of CBD in these 72 plasma samples was measured using high-performance liquid chromatography (HPLC) with tandem mass spectrometry (MS/MS) detection.
In-life Study Design: In-life Study 1901002-01 was performed at the in-life testing facility at Alliance Pharma. Four (4) groups of 21 CD-1 mice each (84 total) were administered a single topical dose of CBD. Mice in Group 1 were administered Formulation A at a strength of 2.5% CBD. Mice in Group 2 were administered Formulation B at the same strength of 2.5% CBD. Mice in Group 3 were administered Formulation C at a strength of 5% CBD, and mice in Group 4 were administered Formulation C at a strength of 2.5% CBD. The treatment scheme is summarized below.
Animals in each group received topical administration of either 2.5% o 5% CBD using a 1 ml syringe to draw up exactly 100 μl. Compound was applied in the shaved area only. Each group received a different formulation of the compound.
Sample Collection, Processing, and Shipment: Blood samples were collected at the in-life facility at the following time points: 0.25, 0.5, 1, 2, 4, and 8 hours post-dose from 72 mice in Groups 1 through 4 (18 from each treatment group). Target volume was less than or equal to 0.2 ml. The blood was collected via trunk puncture into tubes using K2 EDTA as an anticoagulant. The collected blood samples were kept on wet ice before being centrifuged. Blood samples were centrifuged as soon as possible after blood collection at approximately 10,000 rpm for about 10 minutes to separate the plasma. Approximately 0.2 mL of each plasma sample was transferred into labeled Eppendorf tubes. Each tube was stored in a freezer set to −20° C. or lower. No blood was collected from 12 (3 from each treatment group) of the 84 mice enrolled in the in-life study; thus, the total number of plasma samples that were transferred to the Alliance Pharma Bioanalytical department for bioanalysis was 72.
Assay Procedures: For analysis of CBD, a 25-μL aliquot of each study sample was mixed with 25 μL of acetonitrile/water (50:50, v/v). Samples were then extracted by protein precipitation using acetonitrile containing the internal standard, tolbutamide (25 ng/mL). A portion of the supernatant was diluted in deionized water and used for the analysis of CBD.
Data Acquisition and Processing: The LC-MS/MS data acquisition was performed on a Shimadzu Nexera X2 LC system coupled with an AB SCIEX Triple Quad 5500 mass spectrometer. Chromatograms were integrated using Analyst 1.6.2 software. A weighted (1/x^2, x=concentration) linear regression was used to generate the calibration curve for CBD. The concentration of CBD was calculated using the peak area ratio of analyte to internal standard based on the standard curve. Mean, standard deviation, precision, accuracy, and assay variability were calculated using Microsoft Excel software.
Pharmacokinetic Analysis: Software—The PK parameters were determined using a non-compartmental analysis tool, namely, Phoenix WnNonlin 6.3 software (Pharsight Corporation, St. Louis, Mo.). […]

[1] = Group 1, AEM.CBD.006 Formulation A 2.5% CBD, mean dose 78.69 mg/kg
[2] = Group 2, AEM.CBD.007 Formulation B 2.5% CBD, mean dose 76.61 mg/kg
[3] = Group 3, KBM.CBD.010 Formulation C 5% CBD, mean dose 155.24 mg/kg
[4] = Group 4, KBM.CBD.011 Formulation C 2.5% CBD, mean dose 75.76 mg/kg

`C=C(C)[C@@H]1CCC(C)=C[C@H]1c1c(O)cc(CCCCC)cc1O` [Cannabidiol] showed an AUCinf [1] of 1865 ng·h/mL, an AUClast [1] of 1758 ng·h/mL and a Cmax [1] of 427.149 ng/mL. For the same compound, the t1/2 [1] was 1.78 h, the tmax [1] was 2.00 h and the AUCinf [2] was 1647 ng·h/mL. The AUClast [2] was 1563 ng·h/mL, the Cmax [2] was 360.351 ng/mL and the t1/2 [2] was 1.70 h. It also gave a tmax [2] of 2.00 h, an AUCinf [3] of 3533 ng·h/mL and an AUClast [3] of 3067 ng·h/mL. For the same compound, the Cmax [3] was 602.168 ng/mL, the tmax [3] was 4.00 h and the AUCinf [4] was 1514 ng·h/mL. For the same compound, the AUClast [4] was 1410 ng·h/mL, the Cmax [4] was 331.560 ng/mL and the t1/2 [4] was 1.92 h. For the same compound, the tmax [4] was 1.00 h.

Reference: patent US11026896B2, “Transdermal penetrant formulations containing cannabidiol” (AMPERSAND BIOPHARMACEUTICALS, INC., priority 2019, dated 2021)
